Bridge positions count the residues as written; N and C are the ends. Peptide text beside a SMILES is read from it.
Legend:
[1] = tested on: Kv1.3 T345A mutant; experiment: Whole-cell patch clamp, Kv1.3 alanine mutant; assay type: cell-based, human; details: 100 nM MrVIII, +30 mV; n = 4–7
Procedure: (§1) MrVIII inhibits Kv1 channels by stabilizing the voltage sensor in its resting state. […] To investigate this hypothesis, we constructed a series of alanine mutants in the S3-S4 region of the Kv1.3 channel, covering residues I336 to L363, to identify critical interactions between the peptide and the channel (Fig. 6A). […] For the remaining mutants that retained functional current expression, we evaluated the inhibitory activity of 100 nM MrVIII. […] The lack of conserved multiple interaction sites may explain the absence of activity on other Kv subfamily channels (Fig. S3). In summary, this study identified key amino acid residues in the S3-S4 region of the Kv1.3 channel that interact with MrVIII, providing a foundation for further exploration into the peptide's mechanism of action.
(§2) The cDNA of hKv1.1, hKv1.2, hKv1.3, rKv1.4, hKv1.5, mKv1.6, and hKv1.7 were subcloned into mammalian expression vectors pcDNA3.1 or pCMV-blank vectors, as well as other plasmids described previously ([35]). Channel mutants were generated by site-directed mutations. Briefly, the parental channel plasmid was amplified using a pair of oppositely directed primers harboring the designed mutation site, with KOD Fx (TOYOBO Co, Ltd). The resulting PCR mix was treated with FastDigest DpnI (Thermo Fisher Scientific) to remove the methylated template. Ten microliters of the digested product was then used to transform 100 μl E. coli DH5α competent cells. Transformants were randomly picked and sequenced to confirm the presence of the intended mutation.
(§3) CHO-K1 cells were selected for expressing Kv channels due to their lack of endogenous Kv channels, while HEK293 or ND7/23 cells were used for Nav and Cav channel expression. CHO-K1 cells were cultured in a Dulbecco's modified Eagle's medium/Ham's F-12 nutrient mixture (DMEM-F12) medium, and HEK293T and ND7/23 cells in DMEM medium, all supplemented with 10% fetal bovine serum and 1% penicillin-streptomycin (all from Gibco, Thermo Fisher Scientific, Inc) under standard conditions (37 °C, 5% CO2, and saturated humidity). These cell lines were purchased from Stem Cell Bank, Chinese Academy of Sciences. Channel plasmids were cotransfected with pEGFP-N1 (encoding GFP) into the respective cells using lipofectamine 2000, following the manufacturer's instructions (Invitrogen, Thermo Fisher Scientific, Inc.). Nav1.9-GFP plasmid was transfected into ND7/23 using the X-tremeGENE HP DNA Transfection Reagent (Roche). After 4 to 6 h transfection, cells were seeded onto poly-lysine–coated coverslips, and 24 to 36 h later, transfected cells were ready for patch-clamp analysis.
(§4) Patch clamp experiments were conducted using an electrophysiology platform comprising a MultiClamp 700B amplifier and an Axon Digidata 1550 AD/DA convertor (Axon Instruments). Data acquisition was performed with pClamp 10.5 software (Axon Instruments). All experiments were performed at room temperature.
(§5) For Kv current recordings, the bath solution contained (in mM) the following: 140 NaCl, 5 KCl, 1 MgCl2, 2 CaCl2, 10 glucose, and 10 Hepes (pH 7.3, adjusted with NaOH), and the pipette solution contained (in mM) the following: 140 KCl, 2.5 MgCl2, 11 EGTA, and 10 Hepes (pH 7.3, adjusted with KOH). Series resistance was maintained below 10 MΩ and compensated to 80%. Concentration–response curves were fitted by the Hill equation to determine the toxin's potency. Whole cell conductance (G) at each depolarizing voltage (V) was determined using the equation: G = I/(V−Vrev), where I is the current amplitude, and Vrev is the reversal potential. The reversal potential for K^+ current was estimated to be −85.6 mV using the Nernst equation. G-V curves were obtained by plotting the normalized conductance as a function of V and fitted by the Boltzmann equation: y = 1/(1+ exp((Va-V)/k)), which Va is the midpoint voltage, V is the test potential, and k is the slope factor. The steady-state fast inactivation of Kv1.3 was measured using a two-pulses protocol. […]

[2] = tested on: Kv1.3 S359A mutant; experiment: Whole-cell patch clamp, Kv1.3 alanine mutant; assay type: cell-based, human; details: 100 nM MrVIII, +30 mV; n = 4–7
Procedure: as §1, §2, §3, §4, §5

[3] = tested on: Kv1.3/Y339A; experiment: Whole-cell patch clamp, Kv1.3 alanine mutant; assay type: cell-based, human
Procedure: as §1, §2, §3, §4, §5

[4] = tested on: Kv1.3 Q355A mutant; experiment: Whole-cell patch clamp, Kv1.3 alanine mutant; assay type: cell-based, human; details: 100 nM MrVIII, +30 mV; n = 4–7
Procedure: as §1, §2, §3, §4, §5

[5] = tested on: Kv1.3 E349A mutant; experiment: Whole-cell patch clamp, Kv1.3 alanine mutant; assay type: cell-based, human; details: 100 nM MrVIII, +30 mV; n = 4–7
Procedure: as §1, §2, §3, §4, §5

[6] = tested on: Kv1.3 G344A mutant; experiment: Whole-cell patch clamp, Kv1.3 alanine mutant; assay type: cell-based, human; details: 100 nM MrVIII, +30 mV; n = 4–7
Procedure: as §1, §2, §3, §4, §5

[7] = tested on: Kv1.4/Y416A; experiment: Whole-cell patch clamp, Tyr-to-Ala mutant homologous to Kv1.3 Y339; assay type: cell-based, rat; details: 10 μM MrVIII, +30 mV, 500 ms, holding −80 mV, mean ± SD, n = 4–6
Excerpt: Building on the identification of key amino acid residues in Kv1.3 channel that interact with MrVIII through alanine-scanning mutagenesis, we extended our analysis to explore these residues across other Kv1 subfamily channels. […] However, MrVIII retained substantial inhibitory potency on Kv1.2/Y266A mutant, albeit without fully blocking the channel current. […] The profound reduction in MrVIII's effect across homologous mutants supports the idea that it binds to a conserved region.
The cDNA of hKv1.1, hKv1.2, hKv1.3, rKv1.4, hKv1.5, mKv1.6, and hKv1.7 were subcloned into mammalian expression vectors pcDNA3.1 or pCMV-blank vectors, as well as other plasmids described previously ([35]). Channel mutants were generated by site-directed mutations. Briefly, the parental channel plasmid was amplified using a pair of oppositely directed primers harboring the designed mutation site, with KOD Fx (TOYOBO Co, Ltd). The resulting PCR mix was treated with FastDigest DpnI (Thermo Fisher Scientific) to remove the methylated template. […]
CHO-K1 cells were selected for expressing Kv channels due to their lack of endogenous Kv channels, while HEK293 or ND7/23 cells were used for Nav and Cav channel expression. […] After 4 to 6 h transfection, cells were seeded onto poly-lysine–coated coverslips, and 24 to 36 h later, transfected cells were ready for patch-clamp analysis. […]

CC[C@H](C)[C@@H]1NC(=O)[C@H](Cc2ccc(O)cc2)NC(=O)[C@H](CCC(N)=O)NC(=O)[C@@H]2CCCN2C(=O)[C@@H]2CSSC[C@H](NC(=O)[C@H](C)NC(=O)[C@H](CO)NC(=O)[C@H](CCC(=O)O)NC(=O)[C@H](CCC(=O)O)NC(=O)[C@@H](N)[C@@H](C)O)C(=O)NCC(=O)NCC(=O)N[C@@H](Cc3ccccc3)C(=O)N[C@@H](CC(N)=O)C(=O)N[C@@H](C)C(=O)N[C@@H](CCCNC(=N)N)C(=O)N[C@H]3CSSC[C@H](NC1=O)C(=O)N[C@@H](CCCCN)C(=O)NCC(=O)N[C@@H](Cc1c[nH]c4ccccc14)C(=O)N[C@@H](CCCNC(=N)N)C(=O)N[C@@H]([C@@H](C)O)C(=O)N[C@@H](CCCCN)C(=O)N[C@@H](CCCNC(=N)N)C(=O)N[C@H](C(=O)N[C@@H](CC(C)C)C(=O)N[C@@H](CC(N)=O)C(=O)N1CCC[C@H]1C(=O)O)CSSC[C@H](NC(=O)[C@H](CCCCN)NC(=O)[C@H](Cc1c[nH]cn1)NC(=O)[C@H](CC(C)C)NC(=O)[C@@H]1CCCN1C3=O)C(=O)N2 [MrVIII] (H-TEESACGGFNARCPLHKCCPQYICKGWRTKRCLNP-OH; disulfide 6-19, 13-24, 18-32; N-terminus and C-terminus assumed)
reduction in inhibitory potency vs WT Kv1.3, T345A [1]: more than 5 fold | reduction in inhibitory potency vs WT Kv1.3, S359A [2]: more than 5 fold | decrease of inhibitory potency vs WT Kv1.3, Y339A ([3]; 100 nM MrVIII on mutant compared with 10 nM on WT Kv1.3, +30 mV, n = 4–7): more than 10 fold | inhibition of peak current of Kv1.3/Y339A ([3]; 10 μM MrVIII, +30 mV, mean ± SD, n = 4–6, SD): 24.9 ± 6.0% | reduction in inhibitory potency vs WT Kv1.3, Q355A [4]: more than 5 fold | reduction in inhibitory potency vs WT Kv1.3, E349A [5]: more than 5 fold | reduction in inhibitory potency vs WT Kv1.3, G344A [6]: more than 5 fold | inhibition of Kv1.4/Y416A current [7]: 63.5 ± 18.4%
